Data from the NIST ThermoML archive (doi:10.1016/j.tca.2013.08.001).
Numbers after ± are expanded uncertainties.

Assays:
[1] = DTA
[2] = Molar enthalpy of transition or fusion; details: DSC

Triple point temperature ([1]; Crystal 1): 318.08 ± 0.39 K | Triple point temperature ([1]; Crystal 2): 317.22 ± 0.39 K | Molar enthalpy of transition or fusion ([2]; Crystal 1): 48.8 ± 1.6 kJ/mol | Molar enthalpy of transition or fusion ([2]; Crystal 2): 28.9 ± 0.64 kJ/mol
SMILES: CCCCCCCCCCCCCCCCCCCCCC [docosane]
